These results are taken from ChEMBL document CHEMBL1155542, “Mapping the ATP-binding domain of DNA-dependent protein kinase (DNA-PK) with coumarin- and isocoumarin-derived inhibitors” (Bioorg Med Chem Lett, 2010).

Where only a bound is given, the exact number is not on record here.

For the assay, the target named is DNA-dependent protein kinase catalytic subunit (Homo sapiens, UniProt P78527). The assay is described as follows: Inhibition of DNA-dependent protein kinase.
Chain of DNA-dependent protein kinase catalytic subunit (P78527 whole entry): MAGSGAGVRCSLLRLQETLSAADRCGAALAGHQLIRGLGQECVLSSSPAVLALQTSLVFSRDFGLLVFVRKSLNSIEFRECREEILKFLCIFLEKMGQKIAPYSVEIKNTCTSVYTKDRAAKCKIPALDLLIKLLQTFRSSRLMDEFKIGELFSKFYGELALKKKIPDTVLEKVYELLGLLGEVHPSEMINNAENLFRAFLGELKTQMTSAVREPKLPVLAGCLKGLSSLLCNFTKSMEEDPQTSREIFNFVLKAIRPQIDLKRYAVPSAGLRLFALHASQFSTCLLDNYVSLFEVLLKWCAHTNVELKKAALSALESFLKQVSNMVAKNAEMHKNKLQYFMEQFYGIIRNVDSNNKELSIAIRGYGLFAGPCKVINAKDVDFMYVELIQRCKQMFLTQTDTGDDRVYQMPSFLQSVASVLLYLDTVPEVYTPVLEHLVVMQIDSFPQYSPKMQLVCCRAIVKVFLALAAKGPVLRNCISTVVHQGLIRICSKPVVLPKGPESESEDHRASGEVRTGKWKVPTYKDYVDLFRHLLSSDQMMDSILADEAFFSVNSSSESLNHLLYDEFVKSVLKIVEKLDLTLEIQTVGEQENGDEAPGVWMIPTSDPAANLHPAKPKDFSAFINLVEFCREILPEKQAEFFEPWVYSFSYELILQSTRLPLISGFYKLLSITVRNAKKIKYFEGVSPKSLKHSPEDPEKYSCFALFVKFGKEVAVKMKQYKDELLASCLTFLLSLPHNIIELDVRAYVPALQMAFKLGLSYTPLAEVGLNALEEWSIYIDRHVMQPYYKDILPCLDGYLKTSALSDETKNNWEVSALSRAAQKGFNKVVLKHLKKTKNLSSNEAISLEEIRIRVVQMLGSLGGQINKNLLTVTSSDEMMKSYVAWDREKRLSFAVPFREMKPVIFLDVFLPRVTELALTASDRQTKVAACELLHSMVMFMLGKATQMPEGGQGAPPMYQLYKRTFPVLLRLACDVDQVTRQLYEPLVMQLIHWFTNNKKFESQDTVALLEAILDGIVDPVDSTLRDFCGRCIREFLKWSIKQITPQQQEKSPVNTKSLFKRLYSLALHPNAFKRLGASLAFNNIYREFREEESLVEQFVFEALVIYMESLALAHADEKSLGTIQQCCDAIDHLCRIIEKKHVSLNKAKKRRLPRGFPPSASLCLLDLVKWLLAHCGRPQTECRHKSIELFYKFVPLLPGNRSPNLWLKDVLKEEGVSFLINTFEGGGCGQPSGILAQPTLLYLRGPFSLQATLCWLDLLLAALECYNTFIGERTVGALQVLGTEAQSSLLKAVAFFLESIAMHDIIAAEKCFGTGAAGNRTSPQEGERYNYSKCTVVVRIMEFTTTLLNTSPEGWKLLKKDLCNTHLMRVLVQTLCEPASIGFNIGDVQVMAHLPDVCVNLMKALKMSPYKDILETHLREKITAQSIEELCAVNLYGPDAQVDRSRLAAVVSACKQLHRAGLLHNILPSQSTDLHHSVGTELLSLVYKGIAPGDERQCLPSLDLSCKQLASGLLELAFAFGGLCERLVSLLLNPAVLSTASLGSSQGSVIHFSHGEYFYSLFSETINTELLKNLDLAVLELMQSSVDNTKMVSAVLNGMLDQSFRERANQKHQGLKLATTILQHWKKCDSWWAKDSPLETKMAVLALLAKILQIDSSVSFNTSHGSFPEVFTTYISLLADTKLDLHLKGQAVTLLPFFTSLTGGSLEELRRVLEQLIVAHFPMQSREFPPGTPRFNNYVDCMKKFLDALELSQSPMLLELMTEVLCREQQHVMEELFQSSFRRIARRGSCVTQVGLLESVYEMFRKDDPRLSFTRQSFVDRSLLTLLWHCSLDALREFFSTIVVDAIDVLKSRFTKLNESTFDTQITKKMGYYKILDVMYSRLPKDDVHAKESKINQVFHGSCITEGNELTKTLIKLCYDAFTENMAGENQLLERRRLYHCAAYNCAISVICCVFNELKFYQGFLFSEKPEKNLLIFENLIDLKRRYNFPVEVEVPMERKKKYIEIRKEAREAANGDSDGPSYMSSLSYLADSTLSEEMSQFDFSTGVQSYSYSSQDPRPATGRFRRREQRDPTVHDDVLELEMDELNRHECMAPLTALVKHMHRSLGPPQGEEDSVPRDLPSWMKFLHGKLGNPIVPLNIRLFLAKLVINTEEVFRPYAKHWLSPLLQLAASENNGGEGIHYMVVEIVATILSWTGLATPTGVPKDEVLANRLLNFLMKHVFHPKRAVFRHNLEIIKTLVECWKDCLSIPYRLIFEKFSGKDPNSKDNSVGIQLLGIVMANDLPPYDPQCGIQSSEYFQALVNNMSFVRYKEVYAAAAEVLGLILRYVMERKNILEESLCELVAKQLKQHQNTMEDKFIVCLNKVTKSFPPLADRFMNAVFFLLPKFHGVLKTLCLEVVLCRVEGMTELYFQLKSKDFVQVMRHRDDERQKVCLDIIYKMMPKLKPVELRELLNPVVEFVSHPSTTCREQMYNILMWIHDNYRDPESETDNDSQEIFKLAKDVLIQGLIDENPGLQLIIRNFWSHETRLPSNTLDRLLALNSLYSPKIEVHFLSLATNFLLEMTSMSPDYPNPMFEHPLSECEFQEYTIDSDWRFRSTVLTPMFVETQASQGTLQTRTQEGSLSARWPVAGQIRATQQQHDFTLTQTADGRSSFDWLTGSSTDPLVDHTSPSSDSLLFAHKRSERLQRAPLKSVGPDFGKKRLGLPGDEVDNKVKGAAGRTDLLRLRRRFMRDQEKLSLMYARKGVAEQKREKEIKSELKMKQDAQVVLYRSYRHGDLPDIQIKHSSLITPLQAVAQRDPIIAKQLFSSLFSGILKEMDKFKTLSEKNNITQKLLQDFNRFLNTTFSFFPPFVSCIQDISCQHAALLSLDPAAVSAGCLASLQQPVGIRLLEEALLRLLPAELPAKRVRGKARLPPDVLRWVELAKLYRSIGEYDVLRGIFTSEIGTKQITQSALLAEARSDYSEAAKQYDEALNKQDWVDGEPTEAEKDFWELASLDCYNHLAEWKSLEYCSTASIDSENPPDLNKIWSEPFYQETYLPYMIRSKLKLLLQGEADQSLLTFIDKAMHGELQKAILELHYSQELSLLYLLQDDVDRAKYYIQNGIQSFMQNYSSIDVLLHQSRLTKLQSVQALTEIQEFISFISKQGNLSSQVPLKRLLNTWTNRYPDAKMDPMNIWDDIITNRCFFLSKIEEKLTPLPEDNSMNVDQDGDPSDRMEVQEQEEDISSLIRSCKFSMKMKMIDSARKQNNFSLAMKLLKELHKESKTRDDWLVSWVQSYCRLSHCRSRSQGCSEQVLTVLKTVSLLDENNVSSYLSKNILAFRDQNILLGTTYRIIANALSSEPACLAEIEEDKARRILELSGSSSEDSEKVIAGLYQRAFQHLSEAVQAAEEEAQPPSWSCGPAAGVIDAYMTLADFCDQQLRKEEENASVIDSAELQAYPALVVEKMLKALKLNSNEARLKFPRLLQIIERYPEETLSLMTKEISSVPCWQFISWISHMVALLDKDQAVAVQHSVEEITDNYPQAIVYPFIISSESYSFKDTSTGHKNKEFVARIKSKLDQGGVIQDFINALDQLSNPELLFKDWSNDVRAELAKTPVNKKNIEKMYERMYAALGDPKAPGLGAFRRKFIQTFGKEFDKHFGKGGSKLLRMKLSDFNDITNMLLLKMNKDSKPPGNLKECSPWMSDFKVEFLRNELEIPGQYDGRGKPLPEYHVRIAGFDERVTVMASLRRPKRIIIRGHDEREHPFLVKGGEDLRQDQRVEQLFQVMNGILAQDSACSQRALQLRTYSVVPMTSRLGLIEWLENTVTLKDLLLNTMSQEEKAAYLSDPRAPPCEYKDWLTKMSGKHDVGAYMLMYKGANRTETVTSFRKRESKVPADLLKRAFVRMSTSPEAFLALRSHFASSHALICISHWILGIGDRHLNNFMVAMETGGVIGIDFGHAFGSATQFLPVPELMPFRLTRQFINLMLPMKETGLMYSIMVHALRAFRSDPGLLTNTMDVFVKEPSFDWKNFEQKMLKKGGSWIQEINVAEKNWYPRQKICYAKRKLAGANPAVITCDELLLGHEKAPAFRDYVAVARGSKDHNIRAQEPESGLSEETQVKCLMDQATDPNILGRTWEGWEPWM
Regarding `O=c1cc(N2CCOCC2)c2cc(-c3cccc(-c4ccccc4)c3)ccc2o1`, the midpoint of inhibition, the IC50, lay at 1600 nM. Take `O=c1cc(N2CCOCC2)c2cc(-c3cc4ccccc4s3)ccc2o1`: the IC50 is over 10000 nM. In turn, `O=c1oc(N2CCOCC2)cc2c(-c3cccc4c3sc3ccccc34)cccc12` registered an IC50 of 340 nM. `O=c1oc(N2CCOCC2)cc2c(-c3cccc4c3oc3ccccc34)cccc12` showed an IC50 of 330 nM. Turning to `O=c1cc(N2CCOCC2)c2cc(-c3cccc4c3sc3ccccc34)ccc2o1`, the IC50 was over 10000 nM. Compound `O=c1cc(N2CCOCC2)c2cc(-c3cccc4c3oc3ccccc34)ccc2o1` registered a 50% inhibitory concentration (IC50) of over 10000 nM. Compound `O=c1cc(N2CCOCC2)c2ccc(-c3ccccc3)cc2o1` registered an IC50 of 1700 nM. `O=c1cc(N2CCOCC2)c2cc(-c3ccccc3)ccc2o1` returned an IC50 of 1800 nM.

In the case of `O=c1cc(N2CCOCC2)c2cc(-c3cccs3)ccc2o1`, the concentration for half-maximal inhibition (IC50) was found to be 1200 nM. The same measure for `O=c1oc(N2CCOCC2)cc2ccccc12`: over 10000 nM; for `COc1cccc2c(=O)oc(N3CCOCC3)cc12`: 3200 nM; for `O=c1oc(N2CCOCC2)cc2c(-c3ccccc3)cccc12`: 2600 nM. The result for `O=c1oc(N2CCOCC2)cc2c(-c3cccc(-c4ccccc4)c3)cccc12` reads 680 nM. In turn, `O=c1cc(N2CCOCC2)c2ccc(-c3cc4ccccc4s3)cc2o1` returned an IC50 of over 10000 nM. On to `O=c1cc(N2CCOCC2)c2ccc(-c3cccc4c3sc3ccccc34)cc2o1`, for which the IC50 stood at 2100 nM. The result for `O=c1cc(N2CCOCC2)c2ccc(-c3cccc4c3oc3ccccc34)cc2o1` reads 2100 nM. The result for `O=c1cc(N2CCOCC2)c2ccc(-c3cccs3)cc2o1` reads 600 nM; that for `O=c1cc(N2CCOCC2)c2ccc(-c3cccc(-c4ccccc4)c3)cc2o1`, over 10000 nM. The result for `CCN1CCN(CC(=O)Nc2ccc(-c3cccc4c(=O)cc(N5CCOCC5)oc34)c3sc4ccccc4c23)CC1` reads 5 nM; that for `COc1ccc2oc(=O)cc(N3CCOCC3)c2c1`, 1700 nM. `COc1ccc2c(N3CCOCC3)cc(=O)oc2c1` returned an IC50 of 5400 nM. The compound `O=c1cc(N2CCOCC2)oc2c(-c3cccc4c3sc3ccccc34)cccc12` displayed an IC50 of 30 nM.

`O=c1cc(N2CCOCC2)oc2ccccc12` had an IC50 of over 10000 nM. In turn, `COc1cccc2c(=O)cc(N3CCOCC3)oc12` gave an IC50 of 1800 nM.
